Assay results as given in ChEMBL document CHEMBL5500385, “Macrocyclization strategy for improving candidate profiles in medicinal chemistry” (Eur J Med Chem, 2024).
Each block holds one molecule with its values, some of them ahead of it.

Columns and labels:
[1] = biological target: T1, Muscleblind-like protein 1 (Homo sapiens, UniProt Q9NR56)
T1 sequence (Q9NR56 whole entry): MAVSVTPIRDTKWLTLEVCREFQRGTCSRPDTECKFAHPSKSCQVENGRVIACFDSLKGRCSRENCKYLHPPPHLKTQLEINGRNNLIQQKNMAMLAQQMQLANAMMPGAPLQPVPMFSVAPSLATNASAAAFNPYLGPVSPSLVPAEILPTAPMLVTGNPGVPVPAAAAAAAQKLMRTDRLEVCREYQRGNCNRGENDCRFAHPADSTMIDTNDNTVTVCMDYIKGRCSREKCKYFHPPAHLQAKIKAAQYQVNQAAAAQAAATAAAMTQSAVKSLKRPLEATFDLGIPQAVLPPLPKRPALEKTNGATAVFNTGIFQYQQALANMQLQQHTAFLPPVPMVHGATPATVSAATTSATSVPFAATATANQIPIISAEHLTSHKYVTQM
Description: Binding affinity to MBNL1 (unknown origin) (1 to 272 residues) assessed as dissociation constant

in vitro = conditions: human, liver microsomes
[2] = biological target: T2, Peptidyl-prolyl cis-trans isomerase FKBP4 (Homo sapiens, UniProt Q02790)
T2 sequence (Q02790 whole entry): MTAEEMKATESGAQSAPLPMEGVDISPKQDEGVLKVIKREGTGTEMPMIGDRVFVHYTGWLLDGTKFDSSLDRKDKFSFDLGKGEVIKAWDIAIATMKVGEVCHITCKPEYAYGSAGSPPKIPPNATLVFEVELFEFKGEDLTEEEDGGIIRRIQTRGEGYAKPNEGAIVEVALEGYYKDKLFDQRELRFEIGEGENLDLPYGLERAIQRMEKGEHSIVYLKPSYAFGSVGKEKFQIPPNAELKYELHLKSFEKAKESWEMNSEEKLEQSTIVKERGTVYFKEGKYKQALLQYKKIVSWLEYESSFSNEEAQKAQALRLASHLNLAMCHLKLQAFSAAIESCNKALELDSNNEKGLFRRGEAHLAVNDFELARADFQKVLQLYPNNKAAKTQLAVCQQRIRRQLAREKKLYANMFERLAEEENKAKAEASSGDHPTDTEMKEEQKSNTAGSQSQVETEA
Description: Binding affinity to FKBP52 (unknown origin) assessed as inhibition constant by fluorescence polarization assay

HEL = assay: cells; conditions: Homo sapiens
Description: Antiproliferative activity against human HEL cells assessed as reduction in cell growth

SET-2 = assay: cells; conditions: Homo sapiens
Description: Antiproliferative activity against human SET2 cells assessed as reduction in cell viability

[3] = biological target: Tyrosine-protein kinase JAK2 (Homo sapiens, UniProt O60674)
Description: Inhibition of JAK2 (unknown origin)

ATP-citrate synthase [4] = biological target: T3, ATP-citrate synthase (Homo sapiens, UniProt P53396)
T3 sequence (P53396 whole entry): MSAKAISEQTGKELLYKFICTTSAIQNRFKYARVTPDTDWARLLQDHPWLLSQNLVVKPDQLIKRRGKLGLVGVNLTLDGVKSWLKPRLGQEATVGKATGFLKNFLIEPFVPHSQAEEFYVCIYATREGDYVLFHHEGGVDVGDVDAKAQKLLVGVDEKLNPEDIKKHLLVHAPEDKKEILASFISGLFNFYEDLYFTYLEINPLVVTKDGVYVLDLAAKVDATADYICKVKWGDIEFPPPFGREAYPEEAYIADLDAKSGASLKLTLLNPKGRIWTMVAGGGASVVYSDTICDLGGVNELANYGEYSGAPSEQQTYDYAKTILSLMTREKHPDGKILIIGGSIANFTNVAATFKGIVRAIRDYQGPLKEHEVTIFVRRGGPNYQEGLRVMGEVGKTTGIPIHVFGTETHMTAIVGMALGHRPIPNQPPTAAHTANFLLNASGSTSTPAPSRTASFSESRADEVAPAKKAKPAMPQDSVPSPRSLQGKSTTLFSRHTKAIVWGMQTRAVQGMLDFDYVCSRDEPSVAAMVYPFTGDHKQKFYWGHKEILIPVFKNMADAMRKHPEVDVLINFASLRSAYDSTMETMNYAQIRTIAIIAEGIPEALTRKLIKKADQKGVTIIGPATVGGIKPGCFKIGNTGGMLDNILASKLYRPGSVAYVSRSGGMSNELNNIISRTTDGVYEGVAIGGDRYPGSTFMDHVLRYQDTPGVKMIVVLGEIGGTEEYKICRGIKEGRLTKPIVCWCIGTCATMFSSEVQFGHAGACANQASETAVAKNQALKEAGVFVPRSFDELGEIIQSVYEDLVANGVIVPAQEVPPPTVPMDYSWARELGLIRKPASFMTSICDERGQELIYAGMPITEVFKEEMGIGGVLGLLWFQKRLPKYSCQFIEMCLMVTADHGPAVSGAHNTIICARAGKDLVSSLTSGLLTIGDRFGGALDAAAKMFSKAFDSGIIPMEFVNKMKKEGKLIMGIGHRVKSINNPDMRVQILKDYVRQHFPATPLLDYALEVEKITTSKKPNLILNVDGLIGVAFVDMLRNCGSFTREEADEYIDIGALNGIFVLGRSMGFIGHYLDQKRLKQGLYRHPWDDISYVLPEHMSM
Description: Binding affinity to ATP citrate lyase (unknown origin) assessed as dissociation constant

ATP-citrate synthase [5] = biological target: T3, ATP-citrate synthase; remark: listed apart in the source
Description: Inhibition of ATP citrate lyase (unknown origin)

[6] = biological target: Calcitonin gene-related peptide type 1 receptor (Homo sapiens, UniProt O60894+Q16602)
Description: Inhibition of CGRP (unknown origin)

[7] = biological target: T2, Peptidyl-prolyl cis-trans isomerase FKBP4; remark: listed apart in the source
Description: Binding affinity to FKBP52 (unknown origin) assessed as dissociation constant by fluorescence polarization assay

Prothrombin = Prothrombin (Homo sapiens, UniProt P00734)
Description: Binding affinity to thrombin (unknown origin) assessed as inhibition constant

Plasminogen = Plasminogen (Homo sapiens, UniProt P00747)
Plasminogen, sequence (P00747 97-580 limits assumed): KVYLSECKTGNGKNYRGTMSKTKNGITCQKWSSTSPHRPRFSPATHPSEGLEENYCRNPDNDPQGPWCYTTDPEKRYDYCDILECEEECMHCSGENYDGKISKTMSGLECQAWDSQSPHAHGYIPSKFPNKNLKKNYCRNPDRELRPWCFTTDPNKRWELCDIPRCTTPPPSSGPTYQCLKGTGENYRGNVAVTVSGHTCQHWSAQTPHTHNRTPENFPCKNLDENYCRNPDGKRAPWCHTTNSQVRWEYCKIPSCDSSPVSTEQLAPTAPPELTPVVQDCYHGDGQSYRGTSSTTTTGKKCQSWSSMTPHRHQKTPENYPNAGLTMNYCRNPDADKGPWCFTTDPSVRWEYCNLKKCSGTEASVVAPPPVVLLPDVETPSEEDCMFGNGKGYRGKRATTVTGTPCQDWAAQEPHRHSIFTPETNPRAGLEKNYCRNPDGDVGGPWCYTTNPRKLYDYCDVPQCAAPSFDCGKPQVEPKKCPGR
Plasminogen, sequence (P00747 581-810 limits assumed): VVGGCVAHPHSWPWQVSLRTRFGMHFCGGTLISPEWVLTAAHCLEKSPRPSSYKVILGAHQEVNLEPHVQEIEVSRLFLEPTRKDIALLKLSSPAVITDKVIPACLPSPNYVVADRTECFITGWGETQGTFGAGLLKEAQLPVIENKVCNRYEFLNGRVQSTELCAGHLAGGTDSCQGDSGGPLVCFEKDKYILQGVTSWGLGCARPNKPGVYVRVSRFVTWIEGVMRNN
Description: Binding affinity to plasmin (unknown origin) assessed as inhibition constant

Tyrosine-protein kinase JAK2, sequence (O60674 whole entry): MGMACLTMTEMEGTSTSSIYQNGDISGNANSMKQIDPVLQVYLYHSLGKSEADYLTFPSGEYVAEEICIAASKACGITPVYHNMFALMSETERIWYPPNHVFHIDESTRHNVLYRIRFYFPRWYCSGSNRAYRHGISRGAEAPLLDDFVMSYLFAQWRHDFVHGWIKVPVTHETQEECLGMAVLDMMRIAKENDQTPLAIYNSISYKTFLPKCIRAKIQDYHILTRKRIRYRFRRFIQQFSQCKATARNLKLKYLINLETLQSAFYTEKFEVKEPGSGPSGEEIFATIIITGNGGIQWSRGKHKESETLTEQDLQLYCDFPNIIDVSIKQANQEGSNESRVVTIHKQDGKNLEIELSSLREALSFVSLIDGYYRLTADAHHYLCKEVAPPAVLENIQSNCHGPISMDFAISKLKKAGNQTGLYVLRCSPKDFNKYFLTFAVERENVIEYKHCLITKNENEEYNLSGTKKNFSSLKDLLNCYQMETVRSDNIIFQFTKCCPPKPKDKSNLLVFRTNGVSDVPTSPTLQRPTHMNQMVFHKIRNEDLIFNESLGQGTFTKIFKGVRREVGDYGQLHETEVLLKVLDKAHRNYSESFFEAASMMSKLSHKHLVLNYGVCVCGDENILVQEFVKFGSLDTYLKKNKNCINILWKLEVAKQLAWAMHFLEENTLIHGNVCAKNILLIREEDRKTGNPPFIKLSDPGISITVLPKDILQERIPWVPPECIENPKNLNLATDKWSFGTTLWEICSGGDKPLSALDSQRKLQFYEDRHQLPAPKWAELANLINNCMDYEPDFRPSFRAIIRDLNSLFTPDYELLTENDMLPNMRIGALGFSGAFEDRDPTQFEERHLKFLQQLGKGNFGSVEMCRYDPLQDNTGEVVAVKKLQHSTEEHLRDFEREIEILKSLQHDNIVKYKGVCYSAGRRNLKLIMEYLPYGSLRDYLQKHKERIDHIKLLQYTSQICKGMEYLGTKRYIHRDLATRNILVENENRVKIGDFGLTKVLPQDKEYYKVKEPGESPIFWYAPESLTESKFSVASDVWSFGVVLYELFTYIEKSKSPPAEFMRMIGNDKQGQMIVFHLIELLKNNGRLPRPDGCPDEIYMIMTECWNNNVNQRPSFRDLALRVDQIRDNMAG
Calcitonin gene-related peptide type 1 receptor, sequence (Q16602 whole entry, one chain of several): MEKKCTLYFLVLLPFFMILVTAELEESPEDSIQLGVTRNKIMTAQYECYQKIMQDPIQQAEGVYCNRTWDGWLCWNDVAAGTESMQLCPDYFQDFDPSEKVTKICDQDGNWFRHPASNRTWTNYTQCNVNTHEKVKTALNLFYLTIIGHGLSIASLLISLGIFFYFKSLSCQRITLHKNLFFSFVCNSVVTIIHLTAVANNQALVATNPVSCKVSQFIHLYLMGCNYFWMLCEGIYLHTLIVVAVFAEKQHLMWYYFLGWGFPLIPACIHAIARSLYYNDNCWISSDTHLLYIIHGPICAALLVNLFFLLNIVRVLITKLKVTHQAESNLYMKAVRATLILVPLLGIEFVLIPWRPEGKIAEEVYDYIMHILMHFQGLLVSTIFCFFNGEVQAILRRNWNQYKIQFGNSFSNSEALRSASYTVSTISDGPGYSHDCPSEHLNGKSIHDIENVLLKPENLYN

Structure (SMILES): O=C1NCc2ccccc2-c2cc(c(F)cc2F)NS(=O)(=O)c2cc1cc(Cl)c2O
CLint scaled (in vitro): 3.27 mL/min/kg

Structure (SMILES): COc1ccc(CC[C@@H](OC(=O)[C@@H]2CCCCN2C(=O)[C@H](c2cc(OC)c(OC)c(OC)c2)C2CCCCC2)c2cccc(OCCN3CCOCC3)c2)cc1OC
Ki [2]: > 50000 nM

Structure (SMILES): Cc1cnc2nc1Nc1cccc(c1)COC/C=C/COCc1cc(ccc1OCCN1CCCC1)N2
IC50 (HEL): 3060 nM | IC50 (SET-2): 11100 nM | IC50 [3]: 6 nM

Structure (SMILES): COc1ccc(CC[C@@H](OC(=O)[C@@H]2CCCCN2C(=O)[C@H](c2cc(OC)c(OC)c(OC)c2)C2CCCCC2)c2cccc(OCC(=O)O)c2)cc1OC
Ki [2]: > 50000 nM

Structure (SMILES): Cc1cc(C[C@@H](NC(=O)c2cnc3c(c2)C[C@@]2(C3)C(=O)Nc3ncccc32)C(=O)N(C)C)cc2cn[nH]c12
IC50 [6]: 10 nM

Structure (SMILES): N=C(N)c1ccc(CNC(=O)[C@H](Cc2cccc(C(=N)N)c2)NC(=O)[C@@H](CCCc2ccccc2)NS(=O)(=O)Cc2cccc(C(=O)O)c2)cc1
Ki (Prothrombin): 667 nM | Ki (Plasminogen): 0.81 nM

Second part, the molecule after the results:

Kd [1]: 300 nM
Structure (SMILES): COc1ccc2nc3cc(Cl)ccc3c(NCCCCNc3nc(N)nc(N)n3)c2c1

CLint scaled (in vitro): 372 mL/min/kg | Kd (ATP-citrate synthase [4]): 128 nM | IC50 (ATP-citrate synthase [5]): 44 nM
Structure (SMILES): COC(=O)c1cc(Cl)c(O)c(S(=O)(=O)Nc2cc(-c3ccccc3)c(F)cc2F)c1

Kd [7]: > 10000 nM
Structure (SMILES): COc1cccc([C@@H](CCc2ccc(OC)c(OC)c2)OC(=O)[C@@H]2CCCCN2C(=O)[C@H](c2cc(OC)c(OC)c(OC)c2)C2CCCCC2)c1
